Experimental data as given in patent publication US20230201213A1, “USE OF EZH2 INHIBITORS FOR TREATING CANCER” (Epizyme, Inc., priority 2020, published 2023).
Where “and” joins values, the source holds several entries; their conditions need not be identical. Identical values can stand only once.

Legend:
Format in all cases: in vivo, human
intratumoral B cells = assay: Multiplexed immunofluorescence (anti-CD20) of paired pre-/post-dose tumor biopsies, phase 2 mesothelioma study: intratumoral compartment
Description: (§1) In this example, subjects were enrolled in a phase 2, multicenter, open-label, 2-part, single-arm, 2-stage study to assess PK, safety and efficacy of continuous oral dosing with tazemetostat 800 mg, twice daily in adult subjects with relapsed or refractory malignant mesothelioma. Subjects continued on study treatment until disease progression, development of an unacceptable toxicity, withdrawal of consent, or termination of the study. Assessments of clinical response were performed about every 6 weeks while on study. Subjects discontinued study treatment at the time of disease progression, development of an unacceptable toxicity, withdrawal of consent, or termination of the study.
(§2) Tumor tissue biopsy samples were collected for pre-dose tumor sampling at screening and post-dose at or following the first or second tumor assessments (Cycle 3 or 5) according to local clinical site procedures, and tissue blocks processed for formalin fixation and paraffin embedding (FFPE). These FFPE samples were stored at ambient temperature. Pairs of pre- and post-treatment samples were available from 12 subjects. FFPE tissue blocks were available for 9 cases (18 tissue samples) and slides from 3 subjects were available.
(§3) Preparation of tumor tissue was performed as follows: tumor tissue sections of 4-5 micron thickness containing representative tumor cells as determined by a trained pathologist were serially-cut from the same block for two patient cases. Sections were mounted on Superfrost plus slides (Fisherbrand™) and air-dried overnight. Where possible, sections from pre- and post-treatment from the same patient case were mounted on the same slide to reduce reagent use and to diminish technical variability of multiplex, serial antibody staining between pre- and post-treatment samples. Pre- and post-treatment samples passed QC evaluation for 10 biopsy pairs, and these samples were advanced to multiplexed immunofluorescence (IF) staining.
(§4) IF staining of a panel of pairs of Cy3 and Cy5-labeled antibodies was performed. Initially an autofluorescence removal process was conducted. Subsequently, 8 rounds of antibody staining were done with deactivation of the fluorescent dyes via alkaline oxidation occurring prior to each subsequent round of antibody staining.
(§5) As many regions of interest (ROI) were selected for spectral analysis for each sample, and the number ranged from 5-39 across the collection of samples. Few of the ROI failed QC for each sample, typically no more than 1-2 in each sample. There resulting number of ROI successfully imaged and analyzed ranged from 4-39. In toto, 340 of 355 ROI passed QC assessment (95.8%).
(§6) B cell content based on the number of individual cells stained with anti-CD20 in intratumoral and stromal compartments was determined and B cell density was calculated on a mm^2 basis. Creation of intratumoral/stromal masks using PanCK and EMA staining allowed separation of intratumoral from stromal signals. The mean of B cell density from each ROI that passed QC was calculated for each pre- and post-treatment biopsy sample.

stromal B cells = assay: Multiplexed immunofluorescence (anti-CD20) of paired pre-/post-dose tumor biopsies, phase 2 mesothelioma study: stromal compartment
Description: as §1, §2, §3, §4, §5, §6

tumor-associated B cells = assay: RNA-SEQ gene signature analysis of pre-/post-tazemetostat mesothelioma tumor samples; details: post- vs pre-tazemetostat
Description: as §1, §2
The pre- and post-tazemetostat samples were also analyzed using RNA-SEQ to determine if the decrease in intratumoral B cells and stromal B cells could be observed genetically.

[1] = test system: tumor-infiltrating B cells; assay: Bulk RNA-sequencing of pre-/post-tazemetostat epithelioid sarcoma tumor samples; details: post- vs pre-tazemetostat
Description: as §1, with “open-label,” for “open-label, 2-part,”, “safety, tolerability” for “PK, safety”, “daily and 1600 mg once daily” for “daily”, “INI1-negative tumors” for “relapsed”, “relapsed/refractory synovial sarcoma. The patient cohorts in the study also included patients with epithelioid sarcoma.” for “refractory malignant mesothelioma.”, “8” for “6”
Tumor tissue biopsy samples from patients with epithelioid sarcoma were collected for pre-dose tumor sampling at screening and post-dose at or following the first or second tumor assessments (Cycle 3 or 5) according to local clinical site procedures, and tissue blocks processed for formalin fixation and paraffin embedding (FFPE), These FFPE samples were stored at ambient temperature. Pairs of pre- and post-treatment samples were available from 22 subjects.
Pre- and post-tazemetostat samples were analyzed using bulk RNA-sequencing to determine specific gene expression changes and also tumor-infiltrating B cell signatures. Several different B cell signatures and one Macrophage signature were analyzed including B cell memory_CIBERSORT, B cell memory_CIBERSORT-ABS, B cell memory_XCELL, B cell naïve_CIBERSORT, B cell naïve_CIBERSORT-ABS. B cell naïve_XCELL, B cell plasma_CIBERSORT, B cell plasma_CIBERSORT-ABS, B cell plasma_XCELL, B cell_EPIC, B cell_MCPCOUNTER, B cell_QUANTISEQ, B cell_TIMER, B cell_XCELL, Class-switched memory B cell_XCELL, and Macrophage_EPIC. […] Finally, two B cell-specific marker genes, CD19 and CD20, were also analyzed in pre- and post-tazemetostat administration samples.

[2] = 10 mesothelioma patients, post- vs pre-dose
[3] = mesothelioma, paired biopsies of 10 patients
[4] = one line per patient (Pt ID), post-dose biopsy (Cycle 3 or 5), tazemetostat 800 mg twice daily oral, relapsed or refractory malignant mesothelioma, CD20 staining, mean of ROI
[5] = one line per patient (Pt ID), post-dose vs pre-dose biopsy, 800 mg twice daily, mesothelioma, negative = increase

Q: Which “% decrease in intratumoral B cell density (mean of means)” value (intratumoral B cells; [2]) does the source give for `CCN(c1cc(-c2ccc(CN3CCOCC3)cc2)cc(C(=O)NCc2c(C)cc(C)[nH]c2=O)c1C)C1CCOCC1` [tazemetostat] here?
A: 77%

Q: And the “median % decrease in intratumoral B cell density” value (intratumoral B cells; [2])?
A: 100%

Q: And the “B cell post-tazemetostat intratumoral, mean of means” value (intratumoral B cells; mean over 10 patients, post-dose, pre-dose mean of means 35)?
A: 8 cell/mm^2

Q: And the “cases in which number and density of intratumoral B cells decreased to zero” value (intratumoral B cells; mesothelioma, 10 patients)?
A: 5 cases

Q: And the “patients with a decrease of intratumoral B cells” value (intratumoral B cells; [3])?
A: 8/10

Q: And the “B cell post-tazemetostat intratumoral Mean (cell/mm^2)” value (intratumoral B cells; [4])?
A: 0 cell/mm^2 (5×) and 3 cell/mm^2 and 43 cell/mm^2 and 11 cell/mm^2 and 22 cell/mm^2 and 2 cell/mm^2

Q: And the “% decrease B cell per sqmm in post-dose samples (intratumoral)” value (intratumoral B cells; [5])?
A: 100% (5×) and 95% and −529% and 25% and 90%

Q: What about the “increase in B cell content in one sample (intratumoral)” value (intratumoral B cells; one sample that biased the mean decrease) of the same molecule?
A: > 500%

Q: And the “% decrease in stromal B cell density (mean of means)” value (stromal B cells; [2])?
A: 90%

Q: And the “median % decrease in stromal B cell density” value (stromal B cells; [2])?
A: 99%

Q: What about the “B cell post-tazemetostat stromal, mean of means” value (stromal B cells; mean over 10 patients, post-dose, pre-dose mean of means 184) of the same molecule?
A: 18 cell/mm^2

Q: What about the “cases in which number and density of stromal B cells decreased to zero” value (stromal B cells; mesothelioma, 10 patients) of the same molecule?
A: 5 cases

Q: And the “patients with a decrease of stromal B cells” value (stromal B cells; [3])?
A: 9/10

Q: What about the “B cell post-tazemetostat stromal Mean (cell/mm^2)” value (stromal B cells; [4]) of the same molecule?
A: 0 cell/mm^2 (5×) and 1 cell/mm^2 and 3 cell/mm^2 and 101 cell/mm^2 and 72 cell/mm^2 and 6 cell/mm^2

Q: What about the “% decrease B cell per mm^2 in post-dose samples (stromal)” value (stromal B cells; [5]) of the same molecule?
A: 100% (4×) and 99% (3×) and 90% and −418% and 29%

Q: And the “macrophage gene signature (Marcophage_EPIC)” value (tumor-associated B cells)?
A: showed no change

Q: What about the “relative expression level of six B cell gene signatures (B cell memory_XCELL, B cell_MCPCOUNTER, B cell naïve_CIBERSORT, B cell_QUANTISEQ, B cell naïve_CIBERSORT-ABS, B cell_XCELL)” value (tumor-associated B cells; FIG. 6) of the same molecule?
A: showed a decrease in relative expression level

Q: And the “relative expression levels of several B cell signatures” value ([1]; FIG. 7A and 7B)?
A: showed decreases in relative expression levels

Q: What about the “level of CD19 (B cell-specific marker gene)” value ([1]; FIG. 8) of the same molecule?
A: decreased

Q: What about the “level of CD20 (B cell-specific marker gene)” value ([1]; FIG. 8) of the same molecule?
A: decreased
